Experimental data as given in patent publication US20170087174A1, “COMBINATION THERAPY REGIMEN FOR TREATMENT OF HCV” (JANSSEN PHARMACEUTICALS, INC., priority 2015, published 2017).

What was measured:
CYP3A4/5 = CYP3A4/5 inhibition; assay type: in vitro ADME; conditions: up to 10 μM
CYP2C8 = molecular target: T1, CYP2C8 (Homo sapiens, UniProt P10632); experiment: CYP2C8 inhibition; assay type: in vitro ADME; conditions: up to 10 μM
T1 sequence (P10632 1-490): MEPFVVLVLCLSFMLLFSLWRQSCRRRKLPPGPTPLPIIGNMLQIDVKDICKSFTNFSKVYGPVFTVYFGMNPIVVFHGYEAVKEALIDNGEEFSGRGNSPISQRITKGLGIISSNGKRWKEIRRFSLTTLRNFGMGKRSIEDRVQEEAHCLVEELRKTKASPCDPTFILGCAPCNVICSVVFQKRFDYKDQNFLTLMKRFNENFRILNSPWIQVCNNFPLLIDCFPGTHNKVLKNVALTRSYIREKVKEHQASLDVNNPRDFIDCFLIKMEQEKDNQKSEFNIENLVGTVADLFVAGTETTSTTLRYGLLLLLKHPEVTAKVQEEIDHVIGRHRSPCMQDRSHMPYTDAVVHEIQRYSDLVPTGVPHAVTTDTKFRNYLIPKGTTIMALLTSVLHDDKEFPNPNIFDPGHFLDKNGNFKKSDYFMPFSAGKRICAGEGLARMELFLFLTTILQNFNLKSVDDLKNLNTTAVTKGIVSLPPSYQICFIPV

CYP1A2 = CYP1A2 induction; assay type: in vitro ADME; conditions: up to 10 μM
CYP3A4 = CYP3A4 induction; assay type: in vitro ADME; conditions: up to 10 μM
[1] = test system: Digoxin (a pgp-substrate); conditions: SMV co-administered with Digoxin; cited from earlier work
[2] = test system: Rosuvastatin (substrate of OATPs & BCRP); conditions: SMV co-administered with Rosuvastatin; cited from earlier work
NTCP = molecular target: T2, NTCP (Homo sapiens, UniProt Q14973); conditions: in vitro; read-out: other OATPs NTCP inhibition IC50; cited from earlier work
T2 sequence (Q14973 1-349): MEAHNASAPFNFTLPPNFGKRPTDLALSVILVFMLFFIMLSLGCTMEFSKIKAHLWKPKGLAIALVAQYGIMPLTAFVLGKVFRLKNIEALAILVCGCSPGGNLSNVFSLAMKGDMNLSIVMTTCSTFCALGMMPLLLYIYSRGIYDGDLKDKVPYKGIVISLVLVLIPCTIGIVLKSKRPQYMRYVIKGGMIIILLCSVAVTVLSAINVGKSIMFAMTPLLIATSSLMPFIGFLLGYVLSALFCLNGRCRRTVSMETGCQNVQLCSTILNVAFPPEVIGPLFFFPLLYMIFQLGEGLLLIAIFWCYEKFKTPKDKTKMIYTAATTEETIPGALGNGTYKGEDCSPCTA

SMILES: COC(=O)N[C@H](C(=O)N1[C@H](c2nc3cc(-c4cc5ccc4CCc4ccc(c(-c6ccc7[nH]c([C@@H]8C[C@@H]9CCCC[C@@H]9N8C(=O)[C@@H](NC(=O)OC)C(C)C)nc7c6)c4)CC5)ccc3[nH]2)C[C@@H]2CCCC[C@@H]21)C(C)C [ODV, Odalasvir]
- inhibition of CYP3A4/5 (CYP3A4/5): no inhibition
- effect on CYP2C8 (CYP2C8): limited effect

SMILES: COc1ccc2c(O[C@@H]3C[C@H]4C(=O)N[C@]5(C(=O)NS(=O)(=O)C6CC6)C[C@H]5/C=C\CCCCN(C)C(=O)[C@@H]4C3)cc(-c3nc(C(C)C)cs3)nc2c1C [SMV, Simeprevir, reference compound]
- induction of CYP1A2 (CYP1A2): no induction
- induction of CYP3A4 (CYP3A4): no induction
- increase in exposure of Digoxin [1]: 35%
- increase in Rosuvastatin exposure [2]: 3 fold
- IC50 (NTCP): 2200 nM
